According to patent US20160184404A1, “NOVEL HEMOGLOBIN-DERIVED PEPTIDE BASED PHARMACEUTICAL COMPOSITIONS” (CLINIQUE LA PRAIRIE, priority 2014, published 2016):

Tests used:
Human MNC = assay: Stimulation of human MNC with MPLA in the presence of Hb-derived peptides, cytokine ELISA of supernatant; format: cell-based; conditions: for synergistic activity with MPLA, IL-6 release / synergistic activity in enhancing the MPLA-induced cytokine (IL-8) release, screen of native Hbγ1-peptide library: 20 h; for synergistic activity in enhancing the MPLA-induced cytokine (IL-8) release, screen of native Hbγ1-peptide library: MPLA 10 μg/ml, peptide 10 μM, FIG. 4
Experimental: Human mononuclear cells (MNC) were isolated from peripheral blood of healthy donors by density-gradient centrifugation on Ficoll gradient media (PAA Laboratories GmbH, Pasching, Austria). The cells were suspended and cultured in RPMI-1640 medium, containing […]. 50 μl of a peptide solution were incubated with 50 μl of a MPLA solution in a U-form 96 well micro cell culture plate #3799 (Corning Costar GmbH, Bodenheim, Germany) for 15 min at 37° C. After this incubation period 20 μl of heat-inactivated (56° C./30 min) human serum or RPMI-1640 medium were added. Finally, 80 μl of a MNC cell suspension was added to give a final concentration of 1 to 2×10^6 cells for culture in the absence of human serum or 1×10^6 cells for culture in the presence of serum. After a culture time of 20 h the cells were spun down and the culture supernatants were harvested. The cytokine concentrations in the supernatants were determined by matched antibody pairs for ELISA obtained from Invitrogen GmbH, Darmstadt (Germany). Mostly, each value represents the mean±SD of duplicate culture. In FIG. 3 the mean of three independent experiments is given, each of these three independent experiments having duplicate cultures.

Purified human monocytes = assay: Stimulation of purified human monocytes with MPLA in the presence of Hbγ1-peptides, IL-6 ELISA; format: cell-based; conditions: MPLA 1 μg/ml; peptide 1, 3, 10 μM; FIG. 9
Experimental: FIG. 9: Synergistic effect of Hbg-23 and Hbg-32 peptide on stimulation of human monocytes with MPLA. Purified human monocytes (>95%) were stimulated with MPLA (1 μg/ml) in the presence or absence of the Hbγ1-peptides Hbg-23 and Hbg-32-107 (1, 3 and 10 μM). Control cultures were kept without MPLA. After a culture period of 20 h, the IL-6 concentration in the supernatant was determined by ELISA. Each value represents the mean±SD of duplicate cultures.
Human mononuclear cells (MNC) were isolated from peripheral blood of healthy donors by density-gradient centrifugation on Ficoll gradient media (PAA Laboratories GmbH, Pasching, Austria). The cells were suspended and cultured in RPMI-1640 medium, containing […]. 50 μl of a peptide solution were incubated with 50 μl of a MPLA solution in a U-form 96 well micro cell culture plate #3799 (Corning Costar GmbH, Bodenheim, Germany) for 15 min at 37° C. After this incubation period 20 μl of heat-inactivated (56° C./30 min) human serum or RPMI-1640 medium were added. […] The cytokine concentrations in the supernatants were determined by matched antibody pairs for ELISA obtained from Invitrogen GmbH, Darmstadt (Germany). […]

human memory T-cell = assay: Stimulation of memory T-cells in human MNC with recall antigens PPD and TT, 3H-thymidine incorporation; format: cell-based; conditions: FIG. 20
Experimental: For stimulation of T-lymphocytes, human MNC were cultured in RPMI-1640 medium, containing […], and 10% of inactivated human serum at a concentration of 0.5 to 1.0×10^6 cells per ml in flat-bottom 96-well tissue culture plates. To investigate the adjuvant effect of MPLA and Hbg-peptides, the recall antigens tetanus toxoid (TT) and purified protein derivatives of M. tuberculosis (PPD) (both from Statens Serum Institute, Copenhagen, Danmark) were used. After 6 days of culture, cells were labeled with ^3H-Thymidine (3HTdR (2 Ci/mmol, 0.2 μCi/culture)) and after an additional day of culture the cells were harvested on glass-filter mats for measurement of incorporated radioactivity into the DNA. The results are expressed as mean±SD of duplicate cultures.
There is a close interaction between the innate immune system, as presented by e.g. monocytes and dendritic cells, and the adaptive immune system, as presented by T-lymphocytes and B-lymphocytes. Monocytes and dendritic cells present antigenic fragments to the cells of the adaptive immune system to initiate a specific immune reaction. In addition, they support the strength and polarization of the immune response by means of the release of cytokines. […]

[1] = Small angle X-ray scattering (SAXS) of MPLA aggregates; format: physicochemical
Experimental: SAXS measurements were performed at the European Molecular Biology Laboratory (EMBL) outstation at the Hamburg synchrotron radiation facility HASYLAB using the camera X33. Diffraction patterns in the range of the scattering vector 0.1<s<1.0 nm^−1 (s=2 sin θ/λ, 2θ scattering angle and A the wavelength=0.15 nm) were recorded at 40° C. with exposure times of 1 min using an image plate detector with online readout (MAR345, MarResearch, Norderstedt/Germany). The lipid concentration was in all cases 20 mM. The s-axis was calibrated with Ag-behenate, which has a periodicity of […]. The diffraction patterns were evaluated as described previously (Howe et al. (2008a)), assigning the spacing ratios of the main scattering maxima to defined three-dimensional structures. The lamellar and cubic structures are the most relevant here. The following features characterize the supramolecular structure: • (1) lamellar: The reflections are grouped in equidistant ratios, i.e., 1, ½, ⅓, ¼, etc. of the • lamellar repeat distance dλ; • (2) cubic: The different space groups of these non-lamellar three-dimensional structures differ in the ratio of their spacings. The relation between reciprocal spacing shkl=1/dhkl and lattice constant a is
shkl=[(h^2+k^2+l^2)/a]^1/2 • (hkl=Miller indices of the corresponding set of plane).

[2] = Freeze-fracture transmission electron microscopy of MPLA; format: physicochemical; conditions: MPLA 1 mM alone or with equimolar peptide; FIG. 25
Experimental: A small amount of the samples was sandwiched between two copper profiles and frozen by plunging the sandwiches immediately into liquefied ethane-propane-mixture cooled in liquid nitrogen. Fracturing and replication were performed at −150° C. in a BAF 400T freeze-fracture device (BAL-TEC, Balzers, Liechtenstein) equipped with electron guns and a film sheet thickness monitor. For replication Pt(C) was evaporated under an angle of 35° and (C) under 90°. The replicas were placed on copper grids and cleaned with a chloroform-methanol mixture.

[3] = Atomic force microscopy of MPLA dispersions; format: physicochemical; conditions: MPLA 25 μM on mica, alone or with equimolar peptide; after one hour
Experimental: Atomic force microscopy (AFM) allows a direct look onto the morphology of lipid aggregates on a molecular scale under almost physiological conditions. This allows obtaining depth profiles of MPLA dispersions down to a resolution limit of lower than 1 nm. For the analysis, MPLA dispersions were prepared at a concentration of 25 μM in physiological saline in the absence and presence of an equimolar content of Hbg-32.

[4] = MPLA 3 μg/ml, peptide 1, 3, 10 μM, FIG. 7, 10, 12, 15, 16, 29
[5] = MPLA 1 μg/ml, peptide 0.1-10 μM, FIG. 5, 19

CVLAHHFGKEFTPPVQAAYQKVVAGVANAL (Hbb-67)
synergistic activity with MPLA, IL-6 release (Human MNC; [4]): synergistically active in a similar range as Hbg-35-146m

Hbg-51: Hbg-35 alanine-scan peptide with Phe122/Ala-replacement (TVLAIHFGKEATPEVQASWQKMVTAVASAL; Hbg-51)
effect of alanine replacement on the synergistic activity of Hbg-35 with MPLA, IL-6 release (Human MNC; alanine-scan, MPLA 3 μg/ml, peptide 3 μM, FIG. 18): enhanced the synergistic activity of Hbg-35

Hbg-25: peptide of the native Hbγ1-peptide library that includes F122, E125 and V126 (EFTPEVQASWQKMVT; Hbg-25)
synergistic activity in enhancing the MPLA-induced cytokine (IL-8) release, screen of native Hbγ1-peptide library (Human MNC): inactive

TPEVQASWQKMVTAVA [Hbg-69]
synergistic activity with MPLA, IL-6 release (Human MNC; [5]): only a minute synergistic activity or no activity at all

Hbg-24: native overlapping 15 or 16 amino acid peptide of human Hbγ1, Hbγ116-130 (IHFGKEFTPEVQASW; Hbg-24)
synergistic activity with MPLA, IL-6 release (Human MNC; [5]): strong synergistic activity
synergistic activity in enhancing the MPLA-induced cytokine (IL-8) release, screen of native Hbγ1-peptide library (Human MNC): best hits
synergistic activity in enhancing the MPLA-induced cytokine (IL-8) release, screen of native Hbγ1-peptide library (Human MNC; listed as No. 24): profound synergistic activities

Hbg-23: native overlapping 15 or 16 amino acid peptide of human Hbγ1, printed Hbγ11-125 (VTVLAIHFGKEFTPE; Hbg-23)
synergistic activity with MPLA, IL-6 release (Human MNC; [5]): strong synergistic activity
synergistic effect with MPLA in the absence and presence of human serum, IL-6 release (Human MNC; MPLA 3 μg/ml, peptide 1, 3, 10 μM, with or without 10% human serum, FIG. 8, 14): synergistic effects in the absence as well as in the presence of human serum
synergistic activity in enhancing the MPLA-induced cytokine (IL-8) release, screen of native Hbγ1-peptide library (Human MNC): best hits
synergistic activity in enhancing the MPLA-induced cytokine (IL-8) release, screen of native Hbγ1-peptide library (Human MNC; listed as No. 23): profound synergistic activities
synergistic effect with MPLA during induction of IL-release, second batch of peptide (Human MNC; second batch, data not shown): no synergistic effect
synergism with MPLA in stimulating purified human monocytes, IL-6 release (Purified human monocytes): synergize with MPLA

VTLAAHLPAEFTPAVHASLDKFLASVSTVL (Hba-66)
synergistic activity with MPLA, IL-6 release (Human MNC; [4]): only a minimal synergistic activity

Monophosphoryl lipid A [MPLA]
adjuvant activity on the stimulation of T-memory cells with recall antigens (human memory T-cell; PPD 1 μg/ml or TT 0.1 LF/ml, MPLA 10-1000 ng/ml): very effective adjuvant activity
MPLA concentration sufficient to exert a nearly optimal adjuvant effect (human memory T-cell; PPD or TT induced proliferation): ≤ 10 ng/mL
aggregate structure of MPLA (SAXS) ([1]; MPLA alone or in the presence of peptide, 40° C., FIG. 22): largely multi-lamellar
sharp reflection (multi-lamellar periodicity), SAXS ([1]; MPLA alone, FIG. 22A): 4.11 nm
morphology of MPLA aggregates (freeze-fracture electron microscopy) [2]: very densely and lamellar packed aggregates with large sizes in the micrometer range
morphology of MPLA aggregates (AFM) [3]: densely packed multi-lamellar aggregates with some hundred nm extension in z-direction

VLAIHFGKEFTPEVQASW [Hbg-68, Hbγ1[113-130], common part structure of peptides Hbg-32 to Hbg-39]
synergistic activity with MPLA, IL-6 release (Human MNC; [5]): only a minute synergistic activity or no activity at all
